The source of these data is patent publication US6541480B2, “1-aryl-1,8-naphthylidin-4-one derivative as type IV phosphodiesterase inhibitor” (Suntory Limited, priority 1997, dated 2003).

For experiment [1], the system named is type IV phosphodiesterase. As to the kind of experiment: Type IV phosphodiesterase inhibiting activity (3H-cAMP hydrolysis, PDE IV fraction from U937 cells). To be noted: PDE IV fraction from human U937 cells, 30° C., 30 minutes. The class given is biochemical. As to the method:
(1) Method of Measurement of Type IV Phosphodiesterase Inhibiting Activity
The following assay was used to evaluate the ability of the compound of the present invention to suppress type IV phosphodiesterase, according to Biochemical.
1) Type IV phosphodiesterase activity fractions were prepared as follows. Human histiocytic lymphoma cell line U937 was cultured in an RPMI1640 medium containing 10% fetal calf serum to obtain 10^9 cells of U937. The cells were recovered by centrifugation and suspended in 40 ml of buffer A (20 mM bis-tris, 5 mM 2-mercaptoethanol, 2 mM benzamidine, 2 mM EDTA, 0.1 mM 4-(2-aminoethyl)benzensulfonyl hydrochloride, 50 mM sodium acetate, pH=6.5). The cells were broken by a sonication and centrifuged (4° C., 10,000G, 10 minutes) to obtain a supernatent. This was filtered by a 0.45 μm filter to obtain the soluble fraction.
The soluble fraction obtained was applied into a 1×10 cm DEAE Sepharose column equalibrated with the buffer A. 120 ml of the buffer A containing a linear gradient solution of 0.05 to 1 M sodium acetate was used to separate the phosphodiesterase and recover 24 5-ml fractions. Each of the fractions was measured for the cAMP phosphodiesterase activity.
2) The test compound was reacted at a desired concentration in a reaction mixture containing 20 mM tris-HCl (pH 7.5), 1 mM MgCl2, 100 μM EDTA, 330 μg/ml calf serum albumin, 10 μg/ml 5′-nucleotidase, 0.4 μCi ^3H-cAMP ([…] cAMP) and the type IV phosphodiesterase stored solution at 30° C. for 30 minutes. QAE-Sephadex suspended in 10 mM of hepes-Na (pH-7.0) was added to the reaction mixture which was then allowed to stand for 5 minutes, then the supernatant was obtained, QAE-Sephadex was further added, to the supernatant, and was allowed to stand for 5 minutes, then the supernatant was obtained and measured for radioactivity.

Experiment [2] deals with TNF-α production by LPS stimulated mouse peritoneal macrophages. As to the kind of experiment: TNF-α production inhibitory activity by LPS stimulated macrophages (ELISA). The experiment is classed as cell-based. The following applies: LPS 10 μg/ml, 8 hours. As to the method: (1) Method of Measurement of TNF-α Production Inhibitory Activity by LPS Stimulated Macrophages
The following assay was used to evaluate the ability of the compound of the present invention to suppress TNF-α production by LPS stimulated macrophages according to Immuno pharmacol. 29, 121-127 (1995).
1) 6 to 10 week old female BALB/c mice were used, 2 ml portions of thioglycolate were intraperitoneally administered, and the abdominal cavities were washed by 10 ml of PBS after 4 days, whereby 1 to 2×10^7 peritoneal cells were obtained per mouse. These were suspended in a hemocyte solution (0.75% ammonium chloride, 17 mM tris-hydrochlorate buffer, pH7.2), centrifuged, then resuspended in an RPMI1640 medium including 10% fetal calf serum and seeded in a 96-well cell culture plate at a density of 1×10^5 cells/50 μl/well. Since these cells adhered strongly to the tissue culture plate and were positive in nonspecific esterase staining, they were used for the test as mouse peritoneal macrophages. Mouse peritoneal macrophages were precultured overnight at 37° C. in 5% CO2 for the experiment.
2) E. Coli (serum type 055:B5) derived LPS was dissolved in PBS in a concentration of 1 mg/ml, then sterilized by filtration. The test compound was dissolved in DMSO to make a 1000-fold concentration solution of the final concentration of use. 10 μl of the above LPS stock solution (final concentration 10 μg/ml) and 1 μl of the tested substance stock solution were added and mixed in 0.5 ml of RPMI1640 medium containing 10% fetal calf serum. This was added to the above cells at 50 μl/well and cultured for 8 hours. The cultured supernatant was recovered from each well and the TNF-α concentration was measured by the ELISA method (Cytoscreen® Immunoassay Kit Mouse TNF-α, BioSource International).

In the case of `O=C(Nc1c(Cl)cncc1Cl)c1cn(-c2nccs2)c2ncccc2c1=O` [Example 152, N-(3,5-Dichloropyridin-4-yl)-1-(2-thiazolyl)-1,4-dihydro[1,8]naphthylidin-4-one-3-carboxamide], the values for the IC50 in experiment [1] and in experiment [2] (Peritoneal macrophage) were 5.9 nM and 30 nM, respectively.

Consider `O=C(Nc1c(Cl)cncc1Cl)c1cn(-c2ccc(OCc3ccccc3)nc2)c2ncccc2c1=O` [Example 146, 1-(2-Benzyloxypyridin-5-yl)-N-(3,5-dichloropyridin-4-yl)-1,4-dihydro[1,8]naphthylidin-4-one-3-carboxamide], for which the IC50 in experiment [1] was 1.7 nM; in experiment [2] (Peritoneal macrophage) it was 10 nM.

With `Cc1cccc(NC(=O)c2cn(-c3ccc(F)cc3)c3ncccc3c2=O)c1` [Example 70, 1-(4-Fluororhenyl)-N-(3-tolyl)-1,4-dihydro[1,8]naohthylidin-4-one-3-carboxamide], the IC50 in experiment [1] turned out to be 610 nM; in experiment [2] (Peritoneal macrophage), 1000 nM.

Consider `O=C(Nc1ccncc1)c1cn(-c2ccccn2)c2ncccc2c1=O` [Example 132, N-(4-Pyridyl)-1-(2-pyridyl)-1,4-dihydro[1,8]naphthylidin-4-one-3-carboxamide], for which the half-maximal inhibitory concentration (IC50) in experiment [1] stood at 760 nM; in experiment [2] (Peritoneal macrophage), 1000 nM.

As for `O=C(Nc1cccc(CO)c1)c1cn(-c2ccc(F)cc2)c2ncccc2c1=O` [Example 79, 1-(4-fluorophenyl)-N-(3-hydroxymethylphenyl)-1,4-dihydro[1,8]naohthylidin-4-one-3-carboxamide], the values for the IC50 in experiment [1] and in experiment [2] (Peritoneal macrophage) were 55 nM and 300 nM, respectively.

On to `O=C(Nc1c(Cl)cncc1Cl)c1cn(-c2cccnc2)c2ncccc2c1=O` [Example 136, N-(3,5-Dichloropyridin-4-yl)-1-(3-pyridyl)-1,4-dihydro[1,8]naphthylidin-4-one-3-carboxamide], for which the IC50 in experiment [1] turned out to be 0.8 nM; in experiment [2] it was 3 nM.

As to `O=C(Nc1ccncc1)c1cn(-c2ccc(OCc3ccccc3)nc2)c2ncccc2c1=O` [Example 144, 1-(2-Benzyloxypyridin-5-yl)-N-(4-pyridyl)-1,4-dihydro[1,8]naphthylidin-4-one-3-carboxamide], the IC50 in experiment [1] worked out at 140 nM; in experiment [2] (Peritoneal macrophage) it was 700 nM.

Take `CC(C)CNC(=O)c1cn(-c2ccc(F)cc2)c2ncccc2c1=O` [Example 55, 1-(4-Fluorophenyl)-N-isobutyl-1,4-dihydro[1,8]naphthylidin-4-one-3-carboxamide]: the concentration for half-maximal inhibition (IC50) in experiment [1] is 31 nM; in experiment [2] (Peritoneal macrophage), 100 nM.

`O=C(Nc1c(Cl)cccc1Cl)c1cn(-c2ccncc2)c2ncccc2c1=O` [Example 137, N-(2,6-Dichlorophenyl)-1-(4-pyridyl)-1,4-dihydro[1,8]naphthylidin-4-one-3-carboxamide]: the results for the IC50 in experiment [1] and in experiment [2] (Peritoneal macrophage) were 4.9 nM and 4 nM, respectively.

In the case of `CCn1cc(C(=O)NCCc2ccncc2)c(=O)c2ccc(C)nc21` [Comp. Ex., N-(2-(4-pyridyl)ethyl)-1-ethyl-7-methyl-1,4-dihydro[1,8]naphthylidin-4-one-3-carboxyamide, reference compound], the IC50 was determined as 5200 nM in experiment [1] and 10000 nM in experiment [2] (Peritoneal macrophage).

With `O=C(Nc1cccc2cnccc12)c1cn(-c2ccc(F)cc2)c2ncccc2c1=O` [Example 114], the figures for the IC50 in experiment [1] and in experiment [2] (Peritoneal macrophage) were 210 nM and 100 nM, respectively.

As to `O=C(Nc1ccc(F)cc1)c1cn(-c2ccc(F)cc2)c2ncccc2c1=O` [Example 98, 1,N-bis-(4-fluorophenyl)-1,4-dihydro[1,8]naphthylidin-4-one-3-carboxamide], the IC50 in experiment [1] turned out to be 160 nM; in experiment [2] (Peritoneal macrophage) it was 1000 nM.

Regarding `O=C(Nc1c(Cl)cncc1Cl)c1cn(-c2ccc(O)nc2)c2ncccc2c1=O` [Example 147, N-(3,5-Dichloropyridin-4-yl)-1-(2-hydroxypyridin-5-yl)-1,4-dihydro[1,8]naphthylidin-4-one-3-carboxamide], the figures for the IC50 in experiment [1] and in experiment [2] (Peritoneal macrophage) were 1.1 nM and 20 nM, respectively.

In the case of `Cc1cnccc1NC(=O)c1cn(-c2ccncc2)c2ncccc2c1=O` [Example 140, N-(3-Methylpyridin-4-yl)-1-(4-pyridyl)-1,4-dihydro[1,8]naphthylidin-4-one-3-carboxamide], the figures for the IC50 in experiment [1] and in experiment [2] were 36 nM and 5 nM, respectively.

Consider `O=C(NCC1CC1)c1cn(-c2ccc(F)cc2)c2ncccc2c1=O` [Example 56, N-cyclopropylmethyl-1-(4-fluorophenyl)-1,4-dihydro[1,8]naohthylidin-4-one-3-carboxamide], for which the IC50 in experiment [1] worked out at 26 nM; in experiment [2], 4 nM.

For `O=C(Nc1cnccn1)c1cn(-c2ccc(F)cc2)c2ncccc2c1=O` [Example 109, 1-(4-Fluorophenyl)-N-pyrazinyl-1,4-dihydro[1,8]naphthylidin-4-one-3-carboxamide], the IC50 in experiment [1] and in experiment [2] (Peritoneal macrophage) was 400 nM each time.

Consider `O=C(NCCc1ccccc1)c1cn(-c2ccc(F)cc2)c2ncccc2c1=O` [Example 65, 1-(4-Fluorophenyl)-N-(2-phenylethyl)-1,4-dihydro[1,8]naphthylidin-4-one-3-carboxamide], for which the IC50 came to 270 nM in experiment [1] and 600 nM in experiment [2] (Peritoneal macrophage).

On to `NC(=O)c1cccc(NC(=O)c2cn(-c3ccc(F)cc3)c3ncccc3c2=O)c1` [Example 87, N-[3-(aminocarbonyl)phenyl]-1-(4-fluorophenyl)-1,4-dihydro[1,8]naphthylidin-4-one-3-carboxamide], for which the IC50 in experiment [1] came to 72 nM; in experiment [2] (Peritoneal macrophage), 200 nM.

In the case of `COc1ccc(-n2cc(C(=O)Nc3ccncc3)c(=O)c3cccnc32)cc1` [Example 122, 1-(4-Methoxyphenyl)-N-(4-pyridyl)-1,4-dihydro[1,8]naphthylidin-4-one-3-carboxamide], the IC50 is 58 nM in experiment [1] and 1 nM in experiment [2] (Peritoneal macrophage).

Consider `COc1cccc(NC(=O)c2cn(-c3ccc(F)cc3)c3ncccc3c2=O)c1` [Example 77, 1-(4-Fluorophenyl)-N-(3-methoxyphenyl)-1,4-dihydro[1,8]naphthylidin-4-one-3-carboxamide], for which the IC50 in experiment [1] was found to be 180 nM; in experiment [2] (Peritoneal macrophage) it was 100 nM.

On to `CC(C)NC(=O)c1cn(-c2ccc(F)cc2)c2ncccc2c1=O` [Example 53, 1-(4-Fluorophenyl)-N-isopropyl-1,4-dihydro[1,8]naphthylidin-4-one-3-carboxamide], for which the IC50 in experiment [1] amounted to 27 nM; in experiment [2] (Peritoneal macrophage) it was 10 nM.

For the compound `C=CCNC(=O)c1cn(-c2ccc(F)cc2)c2ncccc2c1=O` [Example 54, N-allyl-1-(4-fluorophenyl)-1,4-dihydro[1,8]naphthylidin-4-one-3-carboxamide], the IC50 in experiment [1] is 35 nM; in experiment [2] (Peritoneal macrophage), 100 nM.

As to `O=C(Nc1ccccc1[N+](=O)[O-])c1cn(-c2ccc(F)cc2)c2ncccc2c1=O` [Example 93, 1-(4-fluorophenyl)-N-(2-nitrophenyl)-1,4-dihydro[1,8]naohthylidin-4-one-3-carboxamide], the results for the IC50 in experiment [1] and in experiment [2] (Peritoneal macrophage) were 16 nM and 30 nM, respectively.

As to `O=C(Nc1cccnc1)c1cn(-c2cccnc2)c2ncccc2c1=O` [Example 134, 1,N-bis-(3-Pyridyl)-1,4-dihydro[1,8]naphthylidin-4-one-3-carboxamide], the IC50 is 470 nM in experiment [1] and 800 nM in experiment [2] (Peritoneal macrophage).

Take `O=C(NCCO)c1cn(-c2ccc(F)cc2)c2ncccc2c1=O` [Example 58, 1-(4-Fluorothenyl)-N-(2-hydroxyethyl)-1,4-dihydro[1,8]naphthylidin-4-one-3-carboxamide]: the IC50 in experiment [1] and in experiment [2] (Peritoneal macrophage) was 420 nM in each case.

`O=C(O)c1cccc(NC(=O)c2cn(-c3ccc(F)cc3)c3ncccc3c2=O)c1` [Example 86, 3-[{[1-(4-Fluorophenyl)-1,4-dihydro[1,8]naohthylidin-4-one-3-yl]carbonyl}amino]benzoic Acid]: the IC50 in experiment [1] turned out to be 32 nM; in experiment [2] (Peritoneal macrophage), 400 nM.
